Test results reported in US20140255392A1 (BAYER INTELLECTUAL PROPERTY GMBH, priority 2011, published 2014).

Target: T1, human kinase Mps-1 (Homo sapiens, UniProt P33981)
T1 construct: N-terminally GST-tagged human full length recombinant Mps-1 kinase; GST (N); purchased Invitrogen, Karslruhe, Germany PV4071
T1 sequence (P33981 1-857): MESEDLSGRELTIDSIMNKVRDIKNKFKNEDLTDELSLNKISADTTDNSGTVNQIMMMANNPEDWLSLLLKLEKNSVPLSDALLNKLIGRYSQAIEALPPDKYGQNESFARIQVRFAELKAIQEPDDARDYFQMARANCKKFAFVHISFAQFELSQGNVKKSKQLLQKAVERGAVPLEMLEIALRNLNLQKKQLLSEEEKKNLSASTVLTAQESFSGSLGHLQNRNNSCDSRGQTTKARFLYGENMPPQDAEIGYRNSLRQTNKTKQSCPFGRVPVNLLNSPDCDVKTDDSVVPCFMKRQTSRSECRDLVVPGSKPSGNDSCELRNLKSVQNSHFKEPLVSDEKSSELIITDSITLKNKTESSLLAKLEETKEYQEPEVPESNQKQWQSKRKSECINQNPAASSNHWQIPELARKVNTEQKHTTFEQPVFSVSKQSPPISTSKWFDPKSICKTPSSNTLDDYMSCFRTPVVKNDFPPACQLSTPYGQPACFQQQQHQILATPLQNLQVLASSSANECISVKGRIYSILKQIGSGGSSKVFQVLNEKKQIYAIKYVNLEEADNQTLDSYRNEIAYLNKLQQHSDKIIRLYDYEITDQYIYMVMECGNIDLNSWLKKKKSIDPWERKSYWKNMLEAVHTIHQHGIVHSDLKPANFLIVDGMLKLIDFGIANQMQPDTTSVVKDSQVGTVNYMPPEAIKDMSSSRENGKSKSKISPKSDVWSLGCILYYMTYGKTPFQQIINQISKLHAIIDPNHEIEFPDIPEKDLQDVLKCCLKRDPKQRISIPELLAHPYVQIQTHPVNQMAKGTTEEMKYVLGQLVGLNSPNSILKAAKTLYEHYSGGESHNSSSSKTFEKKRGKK
Assay: Mps-1 kinase assay (TR-FRET)
Type: biochemical
Conditions: N-terminally GST-tagged human full length recombinant Mps-1; 10 μM ATP; 1 μM peptide substrate; 60 min at 22° C.
In short: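 TR-FRET signal between a Europium anti-phospho-Ser/Thr antibody and streptavidin-XLent reported phosphorylation of a biotinylated peptide by GST-tagged full-length Mps-1. Enzyme was near 1 nM final, chosen per lot for linearity.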

| Compound | IC50 |
| --- | --- |
| Cc1cc(-c2cnc3c(NCCC(F)(F)F)cc(Oc4cccc(O)c4)cn23)ccc1C(=O)NC1(C)CC1 [Example 137, 4-{6-(3-Hydroxyphenoxy)-8-[(3,3,3-trifluoropropyl)amino]imidazo[1,2-a]pyridin-3-yl}-2-methyl-N-(1-methylcyclopropyl)benzamide] | 2.2 nM |
| CCNC(=O)c1ccc(-c2cnc3c(NCCC(F)(F)F)cc(Oc4cccc(O)c4)cn23)cc1C [Example 138, N-ethyl-4-{6-(3-hydroxyphenoxy)-8-[(3,3,3-trifluoropropyl)amino]imidazo[1,2-a]pyridin-3-yl}-2-methylbenzamide] | 1.3 nM |
| CNC(=O)c1ccc(-c2cnc3c(NCCC(F)(F)F)cc(Oc4cccc(O)c4)cn23)cc1C [Example 139, 4-{6-(3-Hydroxyphenoxy)-8-[(3,3,3-trifluoropropyl)amino]imidazo[1,2-a]pyridin-3-yl}-N,2-dimethylbenzamide] | 1.1 nM |
| CNC(=O)c1ccc(-c2cnc3c(NCCC(F)(F)F)cc(-c4ccc(C(=O)OC)c(C)c4)cn23)cc1C [Example 140, Methyl 2-methyl-4-{3-[3-methyl-4-(methylcarbamoyl)phenyl]-8-[(3,3,3-trifluoropropyl)amino]imidazo[1,2-a]pyridin-6-yl}benzoate] | 36.1 nM |
| Cc1cc(-c2cnc3c(NCCC(F)(F)F)cc(CCO)cn23)ccc1C(=O)NC1CC1 [Example 141, N-cyclopropyl-4-{6-(2-hydroxyethyl)-8-[(3,3,3-trifluoropropyl)amino]imidazo[1,2-a]pyridin-3-yl}-2-methylbenzamide] | 26.2 nM |
| CNC(=O)c1ccc(-c2cnc3c(NCCC(F)(F)F)cc(CCO)cn23)cc1C [Example 142, 4-{6-(2-Hydroxyethyl)-8-[(3,3,3-trifluoropropyl)amino]imidazo[1,2-a]pyridin-3-yl}-N,2-dimethylbenzamide] | 244 nM |
| COc1c(F)cccc1Oc1cc(NCCC(F)(F)F)c2ncc(-c3ccc(C(=O)NC4CC4)c(C)c3)n2c1 [Example 146, N-cyclopropyl-4-{6-(3-fluoro-2-methoxyphenoxy)-8-[(3,3,3-trifluoropropyl)amino]imidazo[1,2-a]pyridin-3-yl}-2-methylbenzamide] | 3.2 nM |
| CNC(=O)c1ccc(-c2cc(NCCC(F)(F)F)c3ncc(-c4ccc(C(=O)NC5CC5)c(C)c4)n3c2)cc1C [Example 147, 4-{3-[4-(cyclopropylcarbamoyl)-3-methylphenyl]-8-[(3,3,3-trifluoropropyl)amino]imidazo[1,2-a]pyridin-6-yl}-N,2-dimethylbenzamide] | 0.5 nM |
| CCNC(=O)c1ccc(-c2cc(NCCC(F)(F)F)c3ncc(-c4ccc(C(=O)NC5CC5)c(C)c4)n3c2)cc1C [Example 148, 4-{3-[4-(cyclopropylcarbamoyl)-3-methylphenyl]-8-[(3,3,3-trifluoropropyl)amino]imidazo[1,2-a]pyridin-6-yl}-N-ethyl-2-methylbenzamide] | 1 nM |
| Cc1cc(-c2cnc3c(NCCC(F)(F)F)cc(-c4ccc(C(=O)NC5(C)CC5)c(C)c4)cn23)ccc1C(=O)NC1CC1 [Example 149, 4-{3-[4-(cyclopropylcarbamoyl)-3-methylphenyl]-8-[(3,3,3-trifluoropropyl)amino]imidazo[1,2-a]pyridin-6-yl}-2-methyl-N-(1-methylcyclopropyl)benzamide] | 3 nM |
| Cc1cc(-c2cnc3c(NCCC(F)(F)F)cc(-c4ccc(C(=O)NC5(C#N)CC5)c(C)c4)cn23)ccc1C(=O)NC1CC1 [Example 150, 4-(6-{4-[(1-cyanocyclopropyl)carbamoyl]-3-methylphenyl}-8-[(3,3,3-trifluoropropyl)amino]imidazo[1,2-a]pyridin-3-yl)-N-cyclopropyl-2-methylbenzamide] | 0.8 nM |
| Cc1cc(-c2cnc3c(NCCC(F)(F)F)cc(-c4ccc(C(=O)NC5(CO)CC5)c(C)c4)cn23)ccc1C(=O)NC1CC1 [Example 151, 4-{3-[4-(cyclopropylcarbamoyl)-3-methylphenyl]-8-[(3,3,3-trifluoropropyl)amino]imidazo[1,2-a]pyridin-6-yl}-N-[1-(hydroxymethyl)cyclopropyl]-2-methylbenzamide] | 2.6 nM |
| Cc1cc(-c2cc(NCCC(F)(F)F)c3ncc(-c4ccc(C(=O)NC5CC5)c(C)c4)n3c2)ccc1C(N)=O [Example 153, 4-{6-(4-carbamoyl-3-methylphenyl)-8-[(3,3,3-trifluoropropyl)amino]imidazo[1,2-a]pyridin-3-yl}-N-cyclopropyl-2-methylbenzamide] | 0.5 nM |
| CNC(=O)c1ccc(-c2cnc3c(NCCC(F)(F)F)cc(-c4ccc(C(=O)NC5(CO)CC5)c(C)c4)cn23)cc1C [Example 155, 4-{6-(4-{[1-(hydroxymethyl)cyclopropyl]carbamoyl}-3-methylphenyl)-8-[(3,3,3-trifluoropropyl)amino]imidazo[1,2-a]pyridin-3-yl}-N,2-dimethylbenzamide] | 21.1 nM |
| CNC(=O)c1ccc(-c2cnc3c(NCCC(F)(F)F)cc(-c4ccc(C(=O)NC5(C#N)CC5)c(C)c4)cn23)cc1C [Example 156, 4-(6-{4-[(1-cyanocyclopropyl)carbamoyl]-3-methylphenyl}-8-[(3,3,3-trifluoropropyl)amino]imidazo[1,2-a]pyridin-3-yl)-N,2-dimethylbenzamide] | 21.3 nM |
| CNC(=O)c1ccc(-c2cnc3c(NCCC(F)(F)F)cc(-c4ccc(C(=O)NC5(C)CC5)c(C)c4)cn23)cc1C [Example 157, 2-methyl-N-(1-methylcyclopropyl)-4-{3-[3-methyl-4-(methylcarbamoyl)phenyl]-8-[(3,3,3-trifluoropropyl)amino]imidazo[1,2-a]pyridin-6-yl}benzamide] | 15.3 nM |
| CNC(=O)c1ccc(-c2cnc3c(NCCC(F)(F)F)cc(-c4ccc(C(=O)NC5CC5)c(C)c4)cn23)cc1C [Example 158, 4-{6-[4-(cyclopropylcarbamoyl)-3-methylphenyl]-8-[(3,3,3-trifluoropropyl)amino]imidazo[1,2-a]pyridin-3-yl}-N,2-dimethylbenzamide] | 6.2 nM |
| CCNC(=O)c1ccc(-c2cc(NCCC(F)(F)F)c3ncc(-c4ccc(C(=O)NC)c(C)c4)n3c2)cc1C [Example 159, 4-{6-[4-(ethylcarbamoyl)-3-methylphenyl]-8-[(3,3,3-trifluoropropyl)amino]imidazo[1,2-a]pyridin-3-yl}-N,2-dimethylbenzamide] | 9.1 nM |
| CNC(=O)c1ccc(-c2cnc3c(NCCC(F)(F)F)cc(-c4ccc(C(N)=O)c(C)c4)cn23)cc1C [Example 160, 4-{6-(4-carbamoyl-3-methylphenyl)-8-[(3,3,3-trifluoropropyl)amino]imidazo[1,2-a]pyridin-3-yl}-N,2-dimethylbenzamide] | 2.3 nM |
| Cc1cc(-c2cnc3c(NCC(F)F)cc(Oc4cccc(F)c4)cn23)ccc1C(=O)NC1CC1 [Example 161, N-cyclopropyl-4-{8-[(2,2-difluoroethyl)amino]-6-(3-fluorophenoxy)imidazo[1,2-a]pyridin-3-yl}-2-methylbenzamide] | 2.3 nM |
| COc1ccc(Oc2cc(NCC(F)F)c3ncc(-c4ccc(C(=O)NC5CC5)c(C)c4)n3c2)cc1 [Example 162, N-cyclopropyl-4-{8-[(2,2-difluoroethyl)amino]-6-(4-methoxyphenoxy)imidazo[1,2-a]pyridin-3-yl}-2-methylbenzamide] | 8.6 nM |
| Cc1cc(-c2cnc3c(NCC(F)F)cc(Oc4cccc(F)c4F)cn23)ccc1C(=O)NC1CC1 [Example 163, N-cyclopropyl-4-{8-[(2,2-difluoroethyl)amino]-6-(2,3-difluorophenoxy)imidazo[1,2-a]pyridin-3-yl}-2-methylbenzamide] | 1.3 nM |
| Cc1ccc(F)cc1Oc1cc(NCC(F)F)c2ncc(-c3ccc(C(=O)NC4CC4)c(C)c3)n2c1 [Example 164, N-cyclopropyl-4-{8-[(2,2-difluoroethyl)amino]-6-(5-fluoro-2-methylphenoxy)imidazo[1,2-a]pyridin-3-yl}-2-methylbenzamide] | 13.8 nM |
| Cc1cc(-c2cnc3c(NCC(F)F)cc(Oc4cc(F)ccc4F)cn23)ccc1C(=O)NC1CC1 [Example 165, N-cyclopropyl-4-{8-[(2,2-difluoroethyl)amino]-6-(2,5-difluorophenoxy)imidazo[1,2-a]pyridin-3-yl}-2-methylbenzamide] | 48.3 nM |
| COc1ccc(Oc2cc(NCC(F)F)c3ncc(-c4ccc(C(=O)NC5CC5)c(C)c4)n3c2)cc1F [Example 167, N-cyclopropyl-4-{8-[(2,2-difluoroethyl)amino]-6-(3-fluoro-4-methoxyphenoxy)imidazo[1,2-a]pyridin-3-yl}-2-methylbenzamide] | 6.2 nM |
